For one data set, the system named is male Wistar rats. The data set can be described thus: Tolerability in rats (AST, ALT, creatinine, physical appearance). The class given is in vivo, rat.
Data set [1] is described as follows: Tissue distribution, tissue to plasma ratio (Kp) in rats. The class given is in vivo.
Another data set is described as follows: in vivo. As to conditions: rat. On the procedure:
Rats weighing more than 400 g were enrolled in the pharmacokinetic experiments. All rats were placed into metabolic cages and fasted overnight before the pharmacokinetic experiments. The rats were divided randomly into four groups (n = 6 in each): oxyresveratrol 100 mg/kg p.o., oxyresveratrol 100 mg/kg plus piperine 10 mg/kg p.o., oxyresveratrol 10 mg/kg i.v., and oxyresveratrol 10 mg/kg plus piperine 1 mg/kg i.v. All test formulations were freshly prepared by dissolving the compounds in 40% DMSO/NSS to obtain clear solution. The preparations were administered by oral gavage or intravenous administration via the lateral tail vein. […] Plasma samples were collected at baseline (0 h) and 24 h from a subset of rats for determination of AST, ALT and creatinine concentrations, performed by Professional Laboratory Management Crop Co., Ltd. Determination of the creatinine level was performed by the chemiluminescence method, while AST and ALT determination was performed with a kinetic method and measured using an automated analyzer (Cobas 6000; Hoffmann–La Roche, Ltd.). […]
The pharmacokinetic parameters were calculated by non–compartmental analysis using PK Solution 2.0 software (Summit Research Service). […] The absolute oral bioavailability of oxyresveratrol was calculated as (AUCp.o./dosep.o.)/(AUCi.v./dosei.v.). […]

Another data set is described as follows: physchem. To be noted: %Recovery (stability).
For data set [2] the following is noted: rat, in vivo, cited from earlier work.
For data set [3] the following is noted: rat, in vivo, ip, 40 mg/kg; cited from earlier work.
Data set [4] has as its system P–glycoprotein. To be noted: cited from earlier work.
For data set [5], the system named is UGT. Further details: method as in PMID 3917507. As to conditions: mice ref 19, cited from earlier work.
Data set [6] concerns P–glycoprotein. The arrangement: method as in PMID 12130727. As to conditions: cited from earlier work.
Data set [7] concerns UGT. The arrangement: method as in PMID 17487234. To be noted: cited from earlier work.
The mark [8] stands for this setting: intravenous, oxyresveratrol 10 mg/kg (+ piperine 1 mg/kg in combination), postdose (24 h).
[9] abbreviates: intravenous, oxyresveratrol 10 mg/kg (+ piperine 1 mg/kg in combination), predose (0 h) baseline.
[10] abbreviates: oral, oxyresveratrol 100 mg/kg (+ piperine 10 mg/kg in combination), postdose (24 h).
Where [11] appears, read: oral, oxyresveratrol 100 mg/kg (+ piperine 10 mg/kg in combination), predose (0 h) baseline.

Molecules are shown by their SMILES. Like-named read-outs stand apart in the source and are kept apart here.

Protocol for male Wistar rats: Rats weighing more than 400 g were enrolled in the pharmacokinetic experiments. All rats were placed into metabolic cages and fasted overnight before the pharmacokinetic experiments. The rats were divided randomly into four groups (n = 6 in each): oxyresveratrol 100 mg/kg p.o., oxyresveratrol 100 mg/kg plus piperine 10 mg/kg p.o., oxyresveratrol 10 mg/kg i.v., and oxyresveratrol 10 mg/kg plus piperine 1 mg/kg i.v. All test formulations were freshly prepared by dissolving the compounds in 40% DMSO/NSS to obtain clear solution. The preparations were administered by oral gavage or intravenous administration via the lateral tail vein. All rats were anaesthetized with 5% isoflurane by chamber induction method to prevent pain and injury during drug administration and blood collection. The blood collection was conducted at 0, 0.083 (5 min), 0.25 (15 min), 0.5 (30 min), 1, 2, 4, 8, 16 and 24 h in unconscious rats. For tissue collection, euthanization with overdose isoflurane > 10% by chamber induction method was conducted at 0.083 (5 min), 1, 2 and 4 h after oral gavage or intravenous administration, and death was confirmed by exsanguination. […] Plasma samples were collected at baseline (0 h) and 24 h from a subset of rats for determination of AST, ALT and creatinine concentrations, performed by Professional Laboratory Management Crop Co., Ltd. Determination of the creatinine level was performed by the chemiluminescence method, while AST and ALT determination was performed with a kinetic method and measured using an automated analyzer (Cobas 6000; Hoffmann–La Roche, Ltd.).

With `Oc1cc(O)cc(C=Cc2ccc(O)cc2O)c1` [Oxyresveratrol, 2,4,3′,5′–tetrahydroxystilbene], in the data set with male Wistar rats (setting [8]), the ALT is given as 5.80 ± 1.09 U/L, the AST was 45.40 ± 3.78 U/L and the Creatinine amounted to 0.32 ± 0.08 mg/dL. Moreover, in the data set on male Wistar rats (setting [9]), the ALT came to 5.00 ± 0.00 U/L, the AST is 42.00 ± 7.15 U/L and the Creatinine is on record as 0.25 ± 0.15 mg/dL. The Physical appearance entry with male Wistar rats (male Wistar rats, pre-dose and post-dose (24 h), i.v. and oral) is “normal physical appearance”. Also, in the data set with male Wistar rats (setting [10]), the ALT is 6.83 ± 3.25 U/L, the AST amounted to 40.83 ± 22.39 U/L and the Creatinine is recorded as 0.17 ± 0.01 mg/dL. In addition, in the data set with male Wistar rats (setting [11]), the ALT came out at 9.40 ± 9.28 U/L, the AST is recorded as 32.40 ± 16.47 U/L and the Creatinine is on record as 0.17 ± 0.01 mg/dL. For the same compound, in [1] (male, Wistar, in vivo, 100 mg/kg, rat, oral gavage, from 5 min to 4 h, read-out: Tissue to plasma ratio of oxyresveratrol, other internal organs (not stomach, small intestine)), the Kp fell in the range of 1 to 100. In data set [1] (male, Wistar, rat, in vivo, iv), the Kp at 5 min lay within 10 to 100. In addition, the “Oxyresveratrol level in the brain” value in data set [1] (rat, 1, 2 and 4 h after intravenous administration) is reported as “Very low levels”. Further, the dose excreted in “in vivo” (Wistar, in vivo, iv, Percentage recovery of unchanged oxyresveratrol in urine) fell in the range of 5 to 10%. In “in vivo” (0 to 48 h after intravenous dosing), the “Unchanged oxyresveratrol found in feces” value is below 1%. Further, the “%Recovery (stability)” value (100 ng/mL) is listed as 72.84%. For the same compound, for the setting “400 ng/mL”, the “%Recovery (stability)” value amounted to 70.43%. Also, in the data set “physchem”, the recovery at 100 ng/mL was 92.6%; the recovery at 400 ng/mL came out at 86.3%; the recovery at 12 h, 10 ng/mL worked out at 63.5%; the recovery at 12 h, 100 ng/mL was 73.5%. In the data set “physchem”, this compound showed a recovery at 12 h, 400 ng/mL of 68.2%; a recovery at 30 d, 10 ng/mL of 72.4%; a recovery at 30 d, 100 ng/mL of 85.8%; a recovery at 30 d, 400 ng/mL of 81.1%. In addition, in data set [2] (po), the Tmax entry is “approximately 15 min”. Also, the Absolute oral bioavailability in [2] is given as 10–15%. The “Concentration reaching the brain” value in [3] is recorded as “only a minimal concentration reached the brain”. Further, the “P–glycoprotein substrate” value with P–glycoprotein [4] is given as “substrate of P–glycoprotein”.
Take `O=C(/C=C/C=C/c1ccc2c(c1)OCO2)N1CCCCC1` [piperine, Piperine]: the “Decrease of in vivo UGT activity” value in the data set with UGT [5] (piperine 10 mg/kg p.o.) is given as 36%; in the data set on UGT [5] (piperine 25 mg/kg p.o.), 55%. The “Inhibition of P–glycoprotein” value with P–glycoprotein [6] was “inhibit”. In addition, the “Hepatic microsomal activity of UGT in vitro” value with UGT [7] is “reduces”.

The values are drawn from paper PMC6720094, “Comparative pharmacokinetics of oxyresveratrol alone and in combination with piperine as a bioenhancer in rats” (BMC Complementary and Alternative Medicine, 2019).
